Assays:
INa in hiPSC-CMs = INa in hiPSC-CMs (Homo sapiens, UniProt Q14524); test: INa current in hiPSC-CMs (voltage clamp); assay type: cell-based; set-up: INa current: unit not given here
[1] = molecular target: Ca2+-specific inward current (ICa) (Rattus norvegicus, UniProt P22002); test: Whole-cell patch clamp, ICa in isolated rat ventricular myocytes; assay type: cell-based
Description: (§1) For various aspects of cardiac ion channel study, human embryonic kidney (HEK293; ATCC, Manassas, VA, USA) cells were transiently transfected using lipofectAmin2000 (Gibco BRL, New York, NY, USA) according to the manufacturer’s instructions. The hERG (human ether-ago-go-related gene corresponding to IKr), KCNQ1/KCNE1 (the gene corresponding to IKs), KCNJ2 (the gene corresponding to IK1) or SCN5A (the gene corresponding to INa) cDNA was co-transfected with green fluorescence protein, the surface marker protein, to allow assessment of the transfection efficiency. For the calcium current, enzymatically isolated single rat ventricular myocytes were used. Briefly, the hearts were rapidly excised from anaesthetized Sprague–Dawley rats (250–350 g) and perfused via the aorta on a Langendorff apparatus with an oxygenated normal Tyrode (NT) solution for 5 min. To clear the blood, then perfused with Ca^2+-free normal Tyrode solution for 3 min. […]
(§2) The external solution for recording the IhERG, IKs and INa channel currents was NT solution. […] The calcium current was measured in naïve rat ventricular myocytes, cells were superfused with an external solution that consisted of (in mM): 137 choline-Cl, 5 CsCl, 0.5 MgCl2, 2 4-AP, 10 HEPES, 10 glucose and 1.8 CaCl2 (pH 7.4 with NaOH), whereas the intracellular solution used to fill the pipette had the following ionic solution (in mM): 20 CsCl, 100 Cs-aspartate, 10 EGTA, 10 HEPES, 20 TEA-Cl, 5 Mg-ATP (pH 7.25 with KOH). […]
pCLAMP (Axon Instruments, Foster City, CA, USA), Origin 8 (OriginLab Corp, Northampton, MA, USA), and Excel (Microsoft, Redmond, WA, USA) were used for data acquisition and analysis. The concentration–response relationships for drug-induced blockage were calculated using SigmaPlot (Systat Software, San Jose, CA, USA). […] Statistical significance was determined using the Student’s t-test and one-way ANOVA with post hoc testing using Dunnett’s method; p < 0.05 was considered to indicate statistical significance. […]

F656A hERG = F656A hERG (Homo sapiens, UniProt Q12809, F656A); details: 3 μM, -120 mV, high K+
Y652A hERG = Y652A hERG (Homo sapiens, UniProt Q12809, Y652A); test: in vitro; details: HEK-293 cells transiently expressing Y652A mutant hERG
KCNJ2 (IK1) = molecular target: T1, KCNJ2 (IK1) (Homo sapiens, UniProt P63252); test: cell-based
T1 sequence (P63252 1-427): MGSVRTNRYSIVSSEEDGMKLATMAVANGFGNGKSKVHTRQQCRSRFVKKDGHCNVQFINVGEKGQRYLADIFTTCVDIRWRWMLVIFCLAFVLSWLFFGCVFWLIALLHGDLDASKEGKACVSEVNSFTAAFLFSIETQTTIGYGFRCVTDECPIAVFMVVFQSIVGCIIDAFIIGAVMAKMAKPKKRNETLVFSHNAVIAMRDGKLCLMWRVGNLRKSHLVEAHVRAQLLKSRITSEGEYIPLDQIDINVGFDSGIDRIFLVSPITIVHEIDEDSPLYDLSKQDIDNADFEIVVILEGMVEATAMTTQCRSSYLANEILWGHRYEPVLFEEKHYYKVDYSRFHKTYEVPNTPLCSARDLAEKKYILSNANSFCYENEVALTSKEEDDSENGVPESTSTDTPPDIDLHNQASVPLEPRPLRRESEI
Description: as §1, with “min.” for “min. To clear the blood, then perfused with Ca^2+-free normal Tyrode solution for 3 min.”
as §2

rabbit Purkinje fibers = test: Action potential recording in rabbit Purkinje fiber; details: for APA / APD50 / APD90 / RMP / Vmax: 1 Hz pacing

Sequence of INa in hiPSC-CMs (Q14524 212-1075 limits assumed): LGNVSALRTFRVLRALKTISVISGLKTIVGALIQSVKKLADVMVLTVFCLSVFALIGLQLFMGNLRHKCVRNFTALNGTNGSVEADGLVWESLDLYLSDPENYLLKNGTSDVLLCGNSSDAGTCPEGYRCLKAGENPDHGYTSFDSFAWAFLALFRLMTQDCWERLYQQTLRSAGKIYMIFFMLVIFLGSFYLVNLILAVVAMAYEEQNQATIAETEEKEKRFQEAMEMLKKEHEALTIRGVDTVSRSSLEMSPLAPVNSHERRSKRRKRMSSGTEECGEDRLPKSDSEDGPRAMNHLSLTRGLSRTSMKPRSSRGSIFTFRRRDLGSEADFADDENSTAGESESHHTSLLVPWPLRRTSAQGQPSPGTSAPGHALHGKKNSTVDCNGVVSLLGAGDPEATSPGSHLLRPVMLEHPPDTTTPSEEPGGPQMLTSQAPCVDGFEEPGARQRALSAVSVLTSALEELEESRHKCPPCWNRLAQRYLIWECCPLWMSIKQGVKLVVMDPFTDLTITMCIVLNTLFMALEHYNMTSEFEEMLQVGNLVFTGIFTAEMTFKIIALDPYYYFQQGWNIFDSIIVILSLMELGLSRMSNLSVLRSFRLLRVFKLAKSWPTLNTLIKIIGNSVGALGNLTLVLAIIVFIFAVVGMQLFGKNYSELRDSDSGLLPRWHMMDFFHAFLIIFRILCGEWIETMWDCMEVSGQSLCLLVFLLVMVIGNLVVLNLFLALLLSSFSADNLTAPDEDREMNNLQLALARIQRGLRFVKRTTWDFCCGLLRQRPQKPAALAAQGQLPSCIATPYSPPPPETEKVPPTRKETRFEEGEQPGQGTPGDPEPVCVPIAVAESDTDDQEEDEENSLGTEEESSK
Sequence of INa in hiPSC-CMs (Q14524 1131-2016 limits assumed): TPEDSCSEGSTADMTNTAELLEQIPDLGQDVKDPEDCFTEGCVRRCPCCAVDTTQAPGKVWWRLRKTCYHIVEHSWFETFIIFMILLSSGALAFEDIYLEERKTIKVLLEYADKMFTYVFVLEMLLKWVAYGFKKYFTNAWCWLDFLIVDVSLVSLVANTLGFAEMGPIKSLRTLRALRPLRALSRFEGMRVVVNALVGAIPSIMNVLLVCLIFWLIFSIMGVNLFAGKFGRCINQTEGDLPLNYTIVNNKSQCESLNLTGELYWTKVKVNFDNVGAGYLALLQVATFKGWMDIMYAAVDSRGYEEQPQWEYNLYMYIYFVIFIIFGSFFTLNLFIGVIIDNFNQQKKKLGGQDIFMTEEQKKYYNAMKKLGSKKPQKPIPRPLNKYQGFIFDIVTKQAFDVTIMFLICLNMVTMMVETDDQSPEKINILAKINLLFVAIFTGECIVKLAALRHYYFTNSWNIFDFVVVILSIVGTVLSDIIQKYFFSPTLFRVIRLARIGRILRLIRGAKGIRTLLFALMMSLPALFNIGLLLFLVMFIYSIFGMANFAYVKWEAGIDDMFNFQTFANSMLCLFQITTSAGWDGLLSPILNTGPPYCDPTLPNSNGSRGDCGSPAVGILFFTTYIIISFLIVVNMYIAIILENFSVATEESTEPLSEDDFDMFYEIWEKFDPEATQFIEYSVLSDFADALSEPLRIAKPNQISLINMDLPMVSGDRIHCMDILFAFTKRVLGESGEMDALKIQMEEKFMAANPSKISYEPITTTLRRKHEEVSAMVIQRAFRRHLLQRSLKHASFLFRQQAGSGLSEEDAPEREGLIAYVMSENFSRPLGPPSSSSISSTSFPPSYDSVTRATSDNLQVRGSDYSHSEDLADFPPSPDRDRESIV
Sequence of Ca2+-specific inward current (ICa) (P22002 whole entry, other chains not shown): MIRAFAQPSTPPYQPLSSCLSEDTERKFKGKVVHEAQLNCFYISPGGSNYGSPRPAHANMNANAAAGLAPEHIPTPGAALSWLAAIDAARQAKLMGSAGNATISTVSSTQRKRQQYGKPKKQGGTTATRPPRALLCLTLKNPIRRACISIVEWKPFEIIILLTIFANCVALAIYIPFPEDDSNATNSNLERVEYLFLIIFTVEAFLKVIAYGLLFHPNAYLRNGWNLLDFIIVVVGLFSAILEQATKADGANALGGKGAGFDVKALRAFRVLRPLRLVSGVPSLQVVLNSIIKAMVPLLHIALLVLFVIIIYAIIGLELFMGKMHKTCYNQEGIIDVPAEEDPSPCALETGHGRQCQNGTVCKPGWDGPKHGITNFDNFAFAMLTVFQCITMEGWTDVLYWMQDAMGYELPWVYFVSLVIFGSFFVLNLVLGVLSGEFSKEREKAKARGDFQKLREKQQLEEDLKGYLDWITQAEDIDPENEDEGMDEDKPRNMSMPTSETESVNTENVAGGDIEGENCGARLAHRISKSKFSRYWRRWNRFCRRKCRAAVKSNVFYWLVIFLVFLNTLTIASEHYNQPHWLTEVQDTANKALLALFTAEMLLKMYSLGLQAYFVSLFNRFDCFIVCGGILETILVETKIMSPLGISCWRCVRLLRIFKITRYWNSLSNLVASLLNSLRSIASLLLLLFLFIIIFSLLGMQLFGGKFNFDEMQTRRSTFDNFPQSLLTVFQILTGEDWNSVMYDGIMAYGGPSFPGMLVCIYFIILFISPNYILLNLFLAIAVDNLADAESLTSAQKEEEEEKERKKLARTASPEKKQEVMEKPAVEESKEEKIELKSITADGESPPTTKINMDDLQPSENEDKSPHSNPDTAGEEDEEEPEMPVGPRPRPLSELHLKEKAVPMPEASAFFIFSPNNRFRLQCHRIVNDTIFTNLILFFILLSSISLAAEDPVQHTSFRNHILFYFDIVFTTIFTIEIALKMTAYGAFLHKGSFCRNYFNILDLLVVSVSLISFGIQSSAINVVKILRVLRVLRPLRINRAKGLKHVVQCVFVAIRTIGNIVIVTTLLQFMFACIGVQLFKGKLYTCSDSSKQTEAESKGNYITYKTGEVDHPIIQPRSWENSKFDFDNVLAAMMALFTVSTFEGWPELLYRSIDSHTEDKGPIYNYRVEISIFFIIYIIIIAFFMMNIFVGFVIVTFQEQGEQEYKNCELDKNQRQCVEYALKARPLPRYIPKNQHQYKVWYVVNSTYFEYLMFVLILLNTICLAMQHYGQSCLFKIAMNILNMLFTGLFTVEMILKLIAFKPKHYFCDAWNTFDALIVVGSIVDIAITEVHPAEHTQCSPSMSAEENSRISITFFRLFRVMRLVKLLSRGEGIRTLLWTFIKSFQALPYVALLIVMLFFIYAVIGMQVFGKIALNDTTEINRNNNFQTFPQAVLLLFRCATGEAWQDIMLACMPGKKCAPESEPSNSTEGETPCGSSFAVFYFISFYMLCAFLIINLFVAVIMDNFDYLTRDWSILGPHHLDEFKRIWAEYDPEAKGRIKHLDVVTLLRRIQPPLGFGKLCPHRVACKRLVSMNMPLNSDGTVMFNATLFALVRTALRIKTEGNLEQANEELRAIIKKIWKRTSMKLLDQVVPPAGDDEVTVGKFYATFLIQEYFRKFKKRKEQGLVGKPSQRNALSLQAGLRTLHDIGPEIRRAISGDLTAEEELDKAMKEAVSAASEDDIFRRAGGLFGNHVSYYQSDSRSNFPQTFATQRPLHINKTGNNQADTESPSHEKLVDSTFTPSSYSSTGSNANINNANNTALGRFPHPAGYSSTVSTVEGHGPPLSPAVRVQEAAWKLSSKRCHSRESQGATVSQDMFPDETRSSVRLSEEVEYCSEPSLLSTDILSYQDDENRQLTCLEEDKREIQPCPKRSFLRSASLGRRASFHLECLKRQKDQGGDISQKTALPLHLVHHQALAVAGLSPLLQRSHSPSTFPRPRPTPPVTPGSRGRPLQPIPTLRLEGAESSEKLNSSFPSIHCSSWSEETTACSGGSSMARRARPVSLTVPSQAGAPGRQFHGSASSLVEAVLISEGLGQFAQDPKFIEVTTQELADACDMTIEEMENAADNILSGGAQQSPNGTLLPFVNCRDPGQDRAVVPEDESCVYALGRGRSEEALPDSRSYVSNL
Sequence of Ca2+-specific inward current (ICa) (P54290 25-1091 partner, other chains not shown): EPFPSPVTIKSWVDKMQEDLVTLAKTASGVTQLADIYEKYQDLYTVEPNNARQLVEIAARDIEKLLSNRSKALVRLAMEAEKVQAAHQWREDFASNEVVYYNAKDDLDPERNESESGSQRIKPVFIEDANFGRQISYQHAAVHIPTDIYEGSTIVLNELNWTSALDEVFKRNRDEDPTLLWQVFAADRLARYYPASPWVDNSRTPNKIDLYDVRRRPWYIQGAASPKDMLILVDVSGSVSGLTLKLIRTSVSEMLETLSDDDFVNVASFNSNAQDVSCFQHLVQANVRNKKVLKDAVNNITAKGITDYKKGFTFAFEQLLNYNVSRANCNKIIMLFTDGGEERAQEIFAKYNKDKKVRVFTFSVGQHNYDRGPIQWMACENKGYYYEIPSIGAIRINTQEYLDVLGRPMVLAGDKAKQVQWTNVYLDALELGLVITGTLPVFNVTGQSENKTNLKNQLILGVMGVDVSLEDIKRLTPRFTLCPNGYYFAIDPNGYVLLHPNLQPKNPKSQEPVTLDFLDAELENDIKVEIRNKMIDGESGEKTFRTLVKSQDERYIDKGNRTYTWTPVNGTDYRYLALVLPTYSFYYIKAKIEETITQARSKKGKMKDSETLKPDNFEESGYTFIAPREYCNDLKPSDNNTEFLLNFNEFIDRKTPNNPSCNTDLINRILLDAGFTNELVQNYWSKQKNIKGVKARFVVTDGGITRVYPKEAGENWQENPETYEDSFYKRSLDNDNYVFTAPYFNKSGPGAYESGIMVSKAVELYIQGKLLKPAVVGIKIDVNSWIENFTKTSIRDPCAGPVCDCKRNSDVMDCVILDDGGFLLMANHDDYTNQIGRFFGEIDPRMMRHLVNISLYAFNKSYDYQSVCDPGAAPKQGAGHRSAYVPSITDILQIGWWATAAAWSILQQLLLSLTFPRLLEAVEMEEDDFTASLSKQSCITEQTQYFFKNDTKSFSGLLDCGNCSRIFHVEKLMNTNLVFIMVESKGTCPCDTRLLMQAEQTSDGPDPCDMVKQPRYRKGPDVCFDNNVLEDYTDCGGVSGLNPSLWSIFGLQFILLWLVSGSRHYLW

IC50 (INa in hiPSC-CMs): 2720 nM | INa current (INa in hiPSC-CMs; 1 μM): -4046.1 ± 53.7 | INa current (INa in hiPSC-CMs; 3 μM): -2284.0 ± 79.5 | INa current (INa in hiPSC-CMs; 10 μM): -1205.7 ± 89.8 | INa current (INa in hiPSC-CMs; 30 μM): -643.2 ± 33.6 | ICa current ([1]; 10 μM): -1639.5 ± 238.1 | ICa current ([1]; 30 μM): -990.7 ± 97.8 | ICa current ([1]; 100 μM): -219.7 ± 24.4 | IC50 (KCNJ2 (IK1)): 94.5 ± 4.57 µM
Compound: COc1cc2c(Nc3ccc(Br)cc3F)ncnc2cc1OCC1CCN(C)CC1 [Vandetanib]
F656A hERG current (F656A hERG): -1101.9 ± 122.4 | inhibition at 3 μM (Y652A hERG): 64.2 ± 2.8% | APA (rabbit Purkinje fibers; 0.3 μM): 118.0 ± 1.9 mV | APD50 (rabbit Purkinje fibers; 0.3 μM): 218.9 ± 20.3 ms | APD90 (rabbit Purkinje fibers; 0.3 μM): 300.1 ± 21.0 ms | RMP (rabbit Purkinje fibers; 0.3 μM): -82.2 ± 0.4 mV | Vmax (rabbit Purkinje fibers; 0.3 μM): 380.9 ± 82.9 V/s | APD90 increase compared to vehicle control (rabbit Purkinje fibers; 1 μM): 31% | APA (rabbit Purkinje fibers; 1 μM): 118.1 ± 2.1 mV | APD90 (rabbit Purkinje fibers; 1 μM): 354.0 ± 25.2 ms | RMP (rabbit Purkinje fibers; 1 μM): -82.2 ± 1.2 mV | Vmax (rabbit Purkinje fibers; 1 μM): 379.9 ± 91.1 V/s | APD50 increase compared to vehicle control (rabbit Purkinje fibers; 3 μM): 38.9% | APD90 increase compared to vehicle control (rabbit Purkinje fibers; 3 μM): 55.6% | APA (rabbit Purkinje fibers; 3 μM): 118.1 ± 1.5 mV | APD50 (rabbit Purkinje fibers; 3 μM): 289.6 ± 21.4 ms | APD90 (rabbit Purkinje fibers; 3 μM): 417.1 ± 20.6 ms | RMP (rabbit Purkinje fibers; 3 μM): -82.3 ± 2.5 mV | Vmax (rabbit Purkinje fibers; 3 μM): 382.8 ± 64.6 V/s | Effect on RMP, APA, and Vmax (rabbit Purkinje fibers; concentrations up to 3 μM): did not significantly alter

— article PMC5891061, “Electrophysiological mechanisms of vandetanib-induced cardiotoxicity: Comparison of action potentials in rabbit Purkinje fibers and pluripotent stem cell-derived cardiomyocytes” (PLoS ONE, 2018)
